Experimental data taken from ChEMBL document CHEMBL1201862, “PubChem BioAssay data set” (2004).
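Cultured in 96-well plates, cells were exposed to test compound for 48 hours across five concentrations. At the GI50, growth is halved.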 The source made the active and inactive calls. No stated cut-off is given here; in the data, active = GI50 up to about 1.1 µM and inactive = higher.

What was measured:
Assay in all cases: NCI tumour cell line growth inhibition, 48 h
NCI-H460 = system: NCI-H460
COLO 205 = system: COLO 205
SF-539 = system: SF-539
786-0 = system: 786-0
SK-MEL-28 = system: SK-MEL-28
SK-OV-3 = system: SK-OV-3
UACC-62 = system: UACC-62
SK-MEL-2 = system: SK-MEL-2
SR = system: SR
SF-295 = system: SF-295
M14 = system: M14
UACC-257 = system: UACC-257
CCRF-CEM = system: CCRF-CEM
OVCAR-8 = system: OVCAR-8
RPMI-8226 = system: RPMI-8226
HCC 2998 = system: HCC 2998

Structure (SMILES) | GI50 (NCI-H460) | GI50 (COLO 205) | GI50 (SF-539) | GI50 (786-0) | GI50 (SK-MEL-28) | GI50 (SK-OV-3) | GI50 (UACC-62) | GI50 (SK-MEL-2) | GI50 (SR) | GI50 (SF-295) | GI50 (M14) | GI50 (UACC-257) | GI50 (CCRF-CEM) | GI50 (OVCAR-8) | GI50 (RPMI-8226) | GI50 (HCC 2998)
C[N+]1=c2c3cccc4cccc(c(=O)n2CC1)c43 | 11.5 µM (inactive) | 10.1 µM (inactive) | 14.6 µM (inactive) | 25.8 µM (inactive) | 15.8 µM (inactive) | 20.6 µM (inactive) | 17.5 µM (inactive) | 19.6 µM (inactive) | 2.77 µM (inactive) | 21.3 µM (inactive) | 14.9 µM (inactive) | 16.1 µM (inactive) | 11.6 µM (inactive) | 16.6 µM (inactive) | 23.9 µM (inactive) | 
Cn1c2c(c3ccccc31)C1C(=O)N(c3ccccc3)C(=O)C1CC2 (stereo not drawn) | > 303 µM (inactive) | > 303 µM (inactive) | > 303 µM (inactive) | > 303 µM (inactive) | > 303 µM (inactive) | > 303 µM (inactive) | > 303 µM (inactive) | > 303 µM (inactive) | > 303 µM (inactive) | > 303 µM (inactive) |  | > 303 µM (inactive) | > 303 µM (inactive) | > 303 µM (inactive) | > 303 µM (inactive) | > 303 µM (inactive)
O=C1C2=C(c3ccccc31)C(c1cccc(Cl)c1)NC(S)=N2 (stereo not drawn) | > 100 µM (inactive) | > 100 µM (inactive) | > 100 µM (inactive) | > 100 µM (inactive) | > 100 µM (inactive) | > 100 µM (inactive) | > 100 µM (inactive) | > 100 µM (inactive) |  | > 100 µM (inactive) | > 100 µM (inactive) | > 100 µM (inactive) | > 100 µM (inactive) | 96.4 µM (inactive) | 88.5 µM (inactive) | > 100 µM (inactive)
CCOc1ccc(/N=N/c2c(-c3ccccc3)nn(C(=O)CC(=O)Nc3cccc(C)c3)c2-c2ccccc2)cc1 | > 100 µM (inactive) | > 100 µM (inactive) | 76.2 µM (inactive) | > 100 µM (inactive) | > 100 µM (inactive) | > 100 µM (inactive) | > 100 µM (inactive) | > 100 µM (inactive) | > 100 µM (inactive) | > 100 µM (inactive) | > 100 µM (inactive) | > 100 µM (inactive) | 76.9 µM (inactive) | > 100 µM (inactive) | 65.8 µM (inactive) | 26.6 µM (inactive)
CC1=C[C@H]2C[C@@]3(C)O[C@@H]([C@]4(C)CC[C@H]([C@@H](C)C(=O)O)OO4)CC3C(C)(C)[C@H]2CC1 (stereo partly drawn) | 1.13 µM (inactive) | 1.44 µM (inactive) | 1.94 µM (inactive) | 3.15 µM (inactive) | 1.56 µM (inactive) |  |  | 1.71 µM (inactive) |  | 2.01 µM (inactive) | 1.44 µM (inactive) | 1.68 µM (inactive) |  | 1.45 µM (inactive) |  | 1.04 µM (active)
O=C(COc1ccc(Cl)cc1)N1N=C(c2ccc(Cl)cc2)CC1(O)c1ccccc1 (stereo not drawn) | 15.2 µM (inactive) | 21 µM (inactive) | 24.8 µM (inactive) | 14.5 µM (inactive) | 18.2 µM (inactive) | 19.5 µM (inactive) | 15.9 µM (inactive) | 24.3 µM (inactive) | 3.69 µM (inactive) | 23.8 µM (inactive) | 18.1 µM (inactive) | 15.8 µM (inactive) | 16.7 µM (inactive) | 15.2 µM (inactive) | 7.03 µM (inactive) | > 37.2 µM (inactive)
COc1ccccc1NC(=O)CC(=O)n1nc(-c2ccccc2)c(/N=N/c2ccccc2[N+](=O)[O-])c1-c1ccccc1 | > 100 µM (inactive) | 95.5 µM (inactive) | > 100 µM (inactive) | > 100 µM (inactive) | 30 µM (inactive) | > 100 µM (inactive) | > 100 µM (inactive) | > 100 µM (inactive) | > 100 µM (inactive) | > 100 µM (inactive) | > 100 µM (inactive) | > 100 µM (inactive) | > 100 µM (inactive) | > 100 µM (inactive) | 74.5 µM (inactive) | 70 µM (inactive)
CC(C(=O)c1ccc(Cl)cc1)/C(=N/NC(=O)NN)C(=O)Nc1cccc(C(F)(F)F)c1 (stereo not drawn) | > 100 µM (inactive) | > 100 µM (inactive) | > 100 µM (inactive) | > 100 µM (inactive) | > 100 µM (inactive) | > 100 µM (inactive) | > 100 µM (inactive) | > 100 µM (inactive) |  | > 100 µM (inactive) | > 100 µM (inactive) | > 100 µM (inactive) | > 100 µM (inactive) | > 100 µM (inactive) | > 100 µM (inactive) | > 100 µM (inactive)
O=C(O)Cc1cc(=O)[nH]c2c1C(=O)CCC2 | > 100 µM (inactive) | > 100 µM (inactive) |  | > 100 µM (inactive) | > 100 µM (inactive) | > 100 µM (inactive) |  | > 100 µM (inactive) | > 100 µM (inactive) | > 100 µM (inactive) | > 100 µM (inactive) | > 100 µM (inactive) | > 100 µM (inactive) | > 100 µM (inactive) | > 100 µM (inactive) | > 100 µM (inactive)
